Laboratory results: paper PMC2532997, “Methoxylation enhances stilbene bioactivity in Caenorhabditis elegans” (BMC Pharmacology, 2008)

How the values were obtained:
[1] = system: C. elegans fem-1(hc17) sterile adults; test: Adult survival assay of sterile fem-1(hc17) adults on compound-supplemented medium; assay type: in vivo, Caenorhabditis elegans
Experimental: For survival assays, young adult (day 0) animals were transferred onto fresh medium supplemented with the test compound at a range of concentrations. The compounds were tested at indicated concentrations in the growth medium (below). C. elegans nematodes are surrounded by a thick collagenous cuticle and are therefore relatively impermeable to environmental compounds. […] Survival was scored every 2–3 days as the ability to move in response to a gentle mechanical stimulus. During the first week of adulthood, C. elegans hermaphrodites are reproductively competent and normally produce 200–300 progeny. Since progeny production would complicate survival analysis, these experiments were performed using fem-1(hc17) animals that are sterile due to a spermatogenesis defect.
Resveratrol and picetannol were obtained from commercial sources (Sigma-Aldrich, Inc. and Calbiochem-Novobiochem Corp., respectively). The methoxylated stilbenes pinostilbene, desoxyrhapontigenin, 3-hydroxy-5,4'-dimethoxystilbene and pterostilbene (Figure 1) were synthesized by partial methylation of trans-resveratrol as previously reported. The methoxylated stilbenes were purified by preparative layer chromatography (Merck Silica gel 60 F254; EMD Chemicals Inc., Gibbstown, NJ) using the developing solvent chloroform:methanol (96:4) with 1% formic acid. […] These stilbenes were identified from their ^1H-NMR spectra (Bruker 400 MHz; Bruker, Billerica, MA). All stilbenes were dissolved in ethanol to 25 mg/mL before use. 5-Fluoro-deoxyuracil (Sigma Chemical Co.) was dissolved to 1 mg/mL in sterile water and stored frozen at -20°C until use. For treating C. elegans adults, each compound was added in a 200 μL volume to the top of a 1-day old bacterial lawn grown on NGM medium to final concentrations as indicated. Compounds were allowed 2 hours to diffuse through the agar medium before animals were added.
For survival analyses, synchronized populations of sterile fem-1(hc17) hermaphrodites were obtained by first transferring several fertile hermaphrodites to a fresh plate at 25°C and allowing them to lay eggs for several hours. The parent hermaphrodites were removed and embryos were allowed to develop into sterile adults at 25°C, which takes approximately 48 hours. On the first day of adulthood, referred to as day 0, sterile adults were transferred onto fresh media supplemented with stilbenes at indicated concentrations, and maintained at 25°C. Adult survival was scored every 2–3 days by the animal's ability to move in response to a gentle mechanical stimulus. Statistical analysis of survival was performed using the JMP software package.

[2] = Determination of stilbene uptake (steady-state levels by GC-MS); assay type: in vivo, Caenorhabditis elegans; conditions: animals treated for 2 days with 100 μM in the culture medium
Description: The differential bioactivities of methoxylated and hydroxylated stilbenes in C. elegans adults might reflect differences in uptake or bioavailability. In general, intact C. elegans adults take up compounds relatively poorly due to their thick, impermeable cuticle. This impermeability has impeded pharmacodynamic analysis in this organism. However, steady-state levels of compounds can be measured in treated animals to provide one measure of pharmacodynamics. To assess whether differential uptake correlated with bioactivity in C. elegans, steady-state levels for pterostilbene, resveratrol-trimethylether and desoxyrhapontigenin were determined in animals treated for 2 days with 100 μM of each compound in the culture medium. […] These concentrations were within the range of serum stilbene levels detected after dietary stilbene supplementation with human volunteers (approx. 2 μM) and rabbits (42.8 μM). […]
Uptake was determined for three stilbenes (desoxyrhapontigenin, pterostilbene and resveratrol-trimethylether) by measuring the steady-state levels of each stilbene in adult fem-1(hc17) hermaphrodites treated under the same conditions as those used for survival assays. […] Derivatized sample was analyzed for stilbenes by gas chromatography-mass spectrometry (GC-MS). […] Quantitation was performed from calibration curve of authentic stilbene samples. […]

SMILES: COc1ccc(/C=C/c2cc(OC)cc(OC)c2)cc1 [Resveratrol-trimethylether, resveratrol-trimethylether]
- Mean lifespan, Treated ([1]; Trial 1, 100 μM in medium, from day 0 of adulthood, 25°C, control 12.16 days): 9.7 days
- Relative survival ([1]; Trial 1, 100 μM, treated vs control mean lifespan): 80%
- Relative survival ([1]; Trial 4, 20 μM): 69%
- Mean lifespan, Treated ([1]; Trial 4, 20 μM, control 11.26 days): 7.72 days
- Relative survival ([1]; Trial 4, 40 μM): 69%
- Mean lifespan, Treated ([1]; Trial 4, 40 μM, control 11.26 days): 7.72 days
- Relative survival ([1]; Trial 4, 100 μM): 64%
- Mean lifespan, Treated ([1]; Trial 4, 100 μM, control 11.26 days): 7.18 days
- Relative survival ([1]; Trial 5, 5 μM): 102%
- Mean lifespan, Treated ([1]; Trial 5, 5 μM, control 18.49 days): 18.83 days
- Relative survival ([1]; Trial 5, 20 μM): 89%
- Mean lifespan, Treated ([1]; Trial 5, 20 μM, control 18.49 days): 16.41 days
- Relative survival ([1]; Trial 5, 100 μM): 82%
- Mean lifespan, Treated ([1]; Trial 5, 100 μM, control 18.49 days): 15.18 days
- Relative survival ([1]; Trial 6, 20 μM): 59%
- Mean lifespan, Treated ([1]; Trial 6, 20 μM, control 15.32 days): 9.02 days
- Relative survival ([1]; Trial 6, 40 μM): 52%
- Mean lifespan, Treated ([1]; Trial 6, 40 μM, control 15.32 days): 7.98 days
- Relative survival ([1]; Trial 6, 100 μM): 49%
- Mean lifespan, Treated ([1]; Trial 6, 100 μM, control 15.32 days): 7.54 days
- steady-state level relative to pterostilbene [2]: less than one-third the level of pterostilbene
